Results: patent publication US9303000B2, “Olefin containing nuclear transport modulators and uses thereof” (KARYOPHARM THERAPEUTICS INC., priority 2011, dated 2016)
pIC50: −log10 of the molar value. Like-named read-outs stand apart in the source and are kept apart here.

How the values were obtained:
[1] = target: T1, Crm1 (Homo sapiens, UniProt O14980); assay: Inhibition of nuclear export (RevGFP assay) / MTT cytotoxicity, Table 1
Experimental: (§1) The evaluation of the affinity of compounds for the Crm1 protein was determined in the RevGFP assay.
(§2) In this assay, U2OS-RevGFP cells are seeded onto clear-bottom, black, 384-well plates the day before the experiment. Compounds are serially diluted 1:2 starting from 40 μM in a separate 384-well plate in DMEM, and then transferred onto cells. Cells are incubated with compound for ˜1 hr before fixation with 3.7% formaldehyde and nuclei staining with Hoechst 33258. The amount of GFP in cell nuclei will be measured and compound IC50s determined (Kau et al, 2003).
(§3) The MTT cell proliferation assay was used to study the cytotoxic properties of the compounds. The assay was performed according to the method described by Roche Molecular Biochemicals with minor modifications. The assay is based on the cleavage of the tetrazolium salt, MTT, in the presence of an electron-coupling reagent. The water-insoluble formazan salt produced must be solubilized in an additional step. Cells, grown in a 96-well tissue culture plate, are incubated with the MTT solution for approximately 4 hours. After this incubation period, a water-insoluble formazan dye is formed. After solubilization, the formazan dye is quantitated using a scanning multi-well spectrophotometer (ELISA reader). […] The cells were seeded at 1.5×10^4 cells in each well of 96-well plate in 200 μL of fresh culture medium and were allowed to attach for overnight. The stock solutions of the compounds were diluted in cell culture medium to obtain eight concentrations of each drug, ranging from 1 nM to 20 μM. After 72 h of treatment the medium was aspirated and the cells were washed once with sterile 1×PBS. Each plate contained the samples, negative control and blank. The DMSO at less than 1% v/v was used as a negative control. […] The following formula was used to calculate the percent of inhibition: Inhibition (%)=(1−(ODo/OD))×100.

[2] = test system: HCT-116 tumor cells; assay: HCT-116 colorectal carcinoma xenograft model; assay type: in vivo, mice
Experimental: FIG. 1 is a graph depicting the results of an HCT-116 colorectal carcinoma xenograft model. HCT-116 cells were inoculated into female athymic Balb c. nu^+/nu^+ mice. Once tumors reached an average volume of 200 mm^3, the animals were dosed with vehicle, 25 mg/kg 5-fluorouracil intraperitoneally and 75 mg/kg I-29 subcutaneously.
FIG. 2 is a graph depicting the results of an HCT-116 colorectal carcinoma xenograft model. HCT-116 cells were inoculated into female athymic Balb c. nu^+/nu^+ mice. Once tumors reached an average volume of 100 mm^3 the animals were dosed with vehicle, 50 mg/kg 5-fluorouracil intraperitoneally and 50 and 100 mg/kg I-34 orally. […] Mice were euthanized on Day 26 due to 20% weight loss. At Day 37, I-34 administered QDX5/week at 50 mg/kg inhibited tumor growth by 85%.
Female balb c nude mice (nu/nu) aged 6 to 8 weeks were obtained from Charles River Laboratories and were randomly and prospectively divided into six groups of ten mice. Mice were inoculated s.c. in flanks with 1×10^6 HCT-116 tumor cells. When cells reached 100-200 mm^3, animals were randomized into treatment groups of 5-10 mice each, excluding mice with the largest and smallest tumors. Mice were treated with vehicle, standard of care drugs (5-FU) or compounds of the invention at the indicated doses and regimen. Animals' weights and condition were recorded daily, and tumors were measured daily. On Day 37 (2 hours after the final dose), all mice were sacrificed, plasma and tumor tissue were collected for PK/PD analysis. Tumors were divided in 4 sections (3, flash-frozen in separate vials and 1 fixed in formalin for paraffin block preparation).
HCT-116 Colorectal tumor cells (ATCC# CCL-247) were grown in the DMEM tissue culture media with 10% fetal bovine serum and 1% penicillin/streptomycin. Cells were routinely trypsinized and passaged 1:4. On the day of implantation, cells were washed in PBS, trypsinized and resuspended in complete media. Cells were washed 3× in serum free medium. Cells were resuspended to a density of 1×10^7 cells/ml prior to being implanted s.c. into mice in a volume of 0.1 mL using a 23G needle.
Tumors were monitored daily. Tumors appearing exceeding 1500 mm^3 were measured, and animals with tumors greater than 1500 mm^3 and/or tumors that became necrotic and/or hindered movement were euthanized. Tumors were measured twice weekly by measuring each tumor in 2 dimensions, along the largest dimension (length, L) and perpendicular to this dimension (width, W). Tumor weights were calculated using the standard formula: (L×W^2)/2. The mean tumor weight and standard error of the mean were calculated for each group at each time point.
Statistical differences between treatment groups were determined using appropriate statistical techniques. A one-way ANOVA or ANOVA on ranks was used to evaluate the area-under the curve for weight gain and tumor volume.

[3] = test system: MM1.S cells; assay: MM1.S multiple myeloma xenograft model; assay type: in vivo, mice
Experimental: FIG. 3 is a graph depicting the results of a MM1.S multiple myeloma model. MM1.S cells were inoculated into female athymic Balb c. nu^+/nu^+mice. Once tumors reached an average volume of 780 mm^3 the animals were dosed with vehicle and 75 mg/kg I-1 subcutaneously. Following 3 doses I-1 caused 50% reduction in tumor growth in a statistically significant manner.
FIG. 4 is a graph depicting the results of a MM1.S multiple myeloma model. MM1.S cells were inoculated into female athymic nu^+/nu^+ mice. Once tumors reached an average volume of 1400 mm^3 the animals were dosed with vehicle or 50 mg/kg I-29 subcutaneously every day. On the fourth day of dosing, vehicle group animals (n=10) reached an average volume of 2300 mm^3 and had to be euthanized due to tumor burden and poor health.
105 female athymic nude mice (8-9 weeks old, Harlan, USA) were grouped into […]. Animals were randomized such that the group average tumor volume was between 100-200 mm^3. Group average body weights were matched as closely as possible once average tumor volumes were randomized. The live-phase portion of this study will be 28 days in duration from the start of until the average group tumor volume reaches 2,000 mm^3, whichever comes first. Mice are to be euthanized with samples collected as and when they individually reach a tumor volume of approximately 2,000 mm^3.
MM1s Cell Culture. […]
Tumor volumes were monitored three times per week throughout the study (typically Monday, Wednesday and Friday) and calculated using the formula: Tumor volume=½(a^2 b); where a=width (smallest dimension) and b=length. […]
Animals were monitored as a group and their tumor volumes were measured three times per week at the same time of day. […]

[4] = target: T1, Crm1
Experimental: as §1, §2, §3

[5] = 50 mg/kg subcutaneously every day, following 8 doses, FIG. 4

T1 sequence (O14980 whole entry): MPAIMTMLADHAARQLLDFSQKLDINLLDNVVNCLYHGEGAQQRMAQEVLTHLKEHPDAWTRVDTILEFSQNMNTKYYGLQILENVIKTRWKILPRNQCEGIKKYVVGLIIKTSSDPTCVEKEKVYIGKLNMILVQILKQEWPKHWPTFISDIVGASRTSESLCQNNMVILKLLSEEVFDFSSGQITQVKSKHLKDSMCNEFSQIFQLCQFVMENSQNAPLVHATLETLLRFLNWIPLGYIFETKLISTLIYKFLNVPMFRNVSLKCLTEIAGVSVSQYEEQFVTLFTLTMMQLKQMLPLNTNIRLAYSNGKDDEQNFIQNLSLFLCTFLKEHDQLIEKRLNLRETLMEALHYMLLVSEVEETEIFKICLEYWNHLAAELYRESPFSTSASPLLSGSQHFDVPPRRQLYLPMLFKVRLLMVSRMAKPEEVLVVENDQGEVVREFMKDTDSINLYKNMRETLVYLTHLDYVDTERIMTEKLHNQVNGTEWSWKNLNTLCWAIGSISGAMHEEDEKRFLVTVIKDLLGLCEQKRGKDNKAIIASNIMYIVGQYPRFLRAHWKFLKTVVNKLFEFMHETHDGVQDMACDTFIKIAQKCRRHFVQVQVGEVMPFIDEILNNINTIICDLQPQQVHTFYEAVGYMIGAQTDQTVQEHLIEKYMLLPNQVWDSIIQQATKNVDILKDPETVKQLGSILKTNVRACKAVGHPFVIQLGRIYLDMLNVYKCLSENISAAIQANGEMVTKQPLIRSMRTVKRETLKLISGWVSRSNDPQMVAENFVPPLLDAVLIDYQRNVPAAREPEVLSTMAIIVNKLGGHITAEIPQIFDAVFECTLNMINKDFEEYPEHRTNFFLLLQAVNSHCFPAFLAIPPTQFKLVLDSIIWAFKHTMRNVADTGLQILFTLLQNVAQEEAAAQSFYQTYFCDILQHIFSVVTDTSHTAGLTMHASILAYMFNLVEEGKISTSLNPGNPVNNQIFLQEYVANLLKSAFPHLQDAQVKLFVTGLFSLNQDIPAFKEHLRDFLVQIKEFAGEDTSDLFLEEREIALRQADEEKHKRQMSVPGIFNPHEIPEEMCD

Row | Compound | pIC50 [1] | other results
1 | COc1cc(-c2ncn(/C=C\c3nnco3)n2)cc(Cl)n1 [Compound I-10, (Z)-2-(2-(3-(2-chloro-6-methoxypyridin-4-yl)-1H-1,2,4-triazol-1-yl)vinyl)-1,3,4-oxadiazole] | > 6.00 | 
2 | N#Cc1cc(-c2ncn(/C=C\c3nnco3)n2)cc(C(F)(F)F)c1 [Compound I-35, (Z)-3-(1-(2-(1,3,4-oxadiazol-2-yl)vinyl)-1H-1,2,4-triazol-3-yl)-5-(trifluoromethyl)benzonitrile] | > 6.00 | 
3 | CC(C)Oc1cc(-c2ncn(/C=C\c3nnco3)n2)cc(Cl)n1 [Compound I-31, (Z)-2-(2-(3-(2-chloro-6-isopropoxypyridin-4-yl)-1H-1,2,4-triazol-1-yl)vinyl)-1,3,4-oxadiazole] | > 6.00 | 
4 | CC(C)Oc1cc(-c2ncn(/C=C\c3nnco3)n2)cc(C(F)(F)F)c1 [Compound I-29, (Z)-2-(2-(3-(3-isopropoxy-5-(trifluoromethyl)phenyl)-1H-1,2,4-triazol-1-yl)vinyl)-1,3,4-oxadiazole] | > 6.00 | reduction in tumor growth ([2]; 75 mg/kg subcutaneously, 5 times/week, following 3 weeks of dosing, FIG. 1): 50%; animals still alive (survival) [3, 5]: 10 out of 12; reduction in tumor growth [3, 5]: 50%
5 | CC(C)Oc1cc(-c2ncn(/C=C\c3nnco3)n2)cc(C(F)(F)F)n1 [Compound I-30, (Z)-2-(2-(3-(2-isopropoxy-6-(trifluoromethyl)pyridin-4-yl)-1H-1,2,4-triazol-1-yl)vinyl)-1,3,4-oxadiazole] | > 6.00 | 
6 | O=c1[nH]cc(F)c(=O)[nH]1 [Compound 5-FU, 5-fluorouracil, reference compound] |  | efficacy on tumor growth ([2]; 25 mg/kg intraperitoneally, 3 weeks of dosing, FIG. 1): did not display efficacy; inhibition of tumor growth compared to vehicle group ([2]; 50 mg/kg intraperitoneally, Day 37, FIG. 2): no inhibition of tumor growth was observed; condition of animals ([2]; 50 mg/kg intraperitoneally, by Day 37, FIG. 2): euthanized due to poor condition; inhibition of tumor growth ([2]; 50 mg/kg intraperitoneally, first 3 weeks, FIG. 2): inhibited tumor growth during the first 3 weeks in a statistically significant manner
7 | FC(F)(F)c1cc(-c2ncn(/C=C\c3nnco3)n2)cc(C(F)(F)F)c1 [Compound I-34, (Z)-2-(2-(3-(3,5-bis(trifluoromethyl)phenyl)-1H-1,2,4-triazol-1-yl)vinyl)-1,3,4-oxadiazole] | > 6.00 | inhibition of tumor growth ([2]; 50 mg/kg orally QDX5/week, Day 37, FIG. 2): 85%; weight loss ([2]; 100 mg/kg orally QDX5/week, Day 26, mice euthanized, FIG. 2): 20%; reduction of tumor growth ([2]; 100 mg/kg orally QDX5/week, Day 26, FIG. 2): complete reduction of tumor growth
8 | CC(C)Oc1cc(Cl)cc(-c2ncn(/C=C\c3nnco3)n2)c1 [Compound I-28, (Z)-2-(2-(3-(3-chloro-5-isopropoxyphenyl)-1H-1,2,4-triazol-1-yl)vinyl)-1,3,4-oxadiazole] | > 6.00 | 
9 | COc1cc(-c2ncn(/C=C\c3ccccc3)n2)cc(C(F)(F)F)c1 [Compound I-38, (Z)-3-(3-methoxy-5-(trifluoromethyl)phenyl)-1-styryl-1H-1,2,4-triazole] | < 5.00 | 
10 | CC(C)Oc1cc(-c2ncn(/C=C\c3ccccn3)n2)cc(C(F)(F)F)c1 [Compound I-37, (Z)-2-(2-(3-(3-isopropoxy-5-(trifluoromethyl)phenyl)-1H-1,2,4-triazol-1-yl)vinyl)pyridine] | > 6.00 | 
11 | CS(=O)(=O)c1cc(-c2ncn(/C=C\c3nnco3)n2)cc(C(F)(F)F)c1 [Compound I-33, (Z)-2-(2-(3-(3-(methylsulfonyl)-5-(trifluoromethyl)phenyl)-1H-1,2,4-triazol-1-yl)vinyl)-1,3,4-oxadiazole] | > 6.00 | 
12 | Clc1cccc(-c2ncn(/C=C\c3nnco3)n2)c1 [Compound I-26, (Z)-2-(2-(3-(3-chlorophenyl)-1H-1,2,4-triazol-1-yl)vinyl)-1,3,4-oxadiazole] | > 6.00 | 
13 | CC(C)Oc1cc(-c2ncn(/C=C\c3ccccc3)n2)cc(C(F)(F)F)c1 [Compound I-39, (Z)-3-(3-isopropoxy-5-(trifluoromethyl)phenyl)-1-styryl-1H-1,2,4-triazole] | < 5.00 | 
14 | COc1cc(-c2ncn(/C=C\c3nnco3)n2)cc(C(F)(F)F)c1 [Compound I-1, (Z)-2-(2-(3-(3-methoxy-5-(trifluoromethyl)phenyl)-1H-1,2,4-triazol-1-yl)vinyl)-1,3,4-oxadiazole] | > 6.00 | reduction in tumor growth ([3]; 75 mg/kg subcutaneously, following 3 doses, FIG. 3): 50%
15 | (Z)-2-(2-(3-(3-chloro-5-(trifluoromethoxy)phenyl)-1H-1,2,4-triazol-1-yl)vinyl)-1,3,4-oxadiazole [Compound I-32] |  | pIC50 [4]: > 6.00
16 | COc1cc(-c2ncn(/C=C\c3ccccn3)n2)cc(C(F)(F)F)c1 [Compound I-21, (Z)-2-(2-(3-(3-methoxy-5-(trifluoromethyl)phenyl)-1H-1,2,4-triazol-1-yl)vinyl)pyridine] | < 5.00 | 
17 | Clc1cccc(-c2ncn(/C=C/c3nnco3)n2)c1 [Compound I-27, (E)-2-(2-(3-(3-chlorophenyl)-1H-1,2,4-triazol-1-yl)vinyl)-1,3,4-oxadiazole] | 5.00 to 6.00 | 
18 | Oc1cc(-c2ncn(/C=C\c3nnco3)n2)cc(C(F)(F)F)c1 [Compound I-36, (Z)-3-(1-(2-(1,3,4-oxadiazol-2-yl)vinyl)-1H-1,2,4-triazol-3-yl)-5-(trifluoromethyl)phenol] | > 6.00 | 
19 | COc1cc(-c2ncn(/C=C\c3nnc(C)o3)n2)cc(C(F)(F)F)c1 [Compound I-2, (Z)-2-(2-(3-(3-methoxy-5-(trifluoromethyl)phenyl)-1H-1,2,4-triazol-1-yl)vinyl)-5-methyl-1,3,4-oxadiazole] | > 6.00 | 
